Results on five compounds are retold here after ChEMBL document CHEMBL1122103 (J Med Chem, 1982).

Assay [1] addresses T1, Dihydrofolate reductase (Mus musculus, UniProt P00375).
T1 sequence (P00375 whole entry): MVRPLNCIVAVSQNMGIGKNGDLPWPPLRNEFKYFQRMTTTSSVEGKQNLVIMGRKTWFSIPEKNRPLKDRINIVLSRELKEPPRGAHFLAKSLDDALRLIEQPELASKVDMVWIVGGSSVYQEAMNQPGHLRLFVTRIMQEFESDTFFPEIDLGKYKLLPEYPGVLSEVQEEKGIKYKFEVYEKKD
The assay is described as follows: In vitro inhibitory activity against L1210 dihydrofolate reductase in rodent neoplastic cells.

Assay [2] deals with Lacticaseibacillus casei. The assay is described as follows: In vitro antibacterial activity against MTX-resistance Lactobacillus casei. It is filed as functional, organism-based.
The subject of assay [3] is Lacticaseibacillus casei. Nature of the assay: In vitro antibacterial activity against Lactobacillus casei (ATCC 7469). It is filed as functional, organism-based.
The species named for assay [4] is Mus musculus. Nature of the assay: In vitro membrane transport activity in neoplastic epithelial cells of rodent gut. Particulars: Epithelial cell. The format is functional, cell-based.
Assay [5] has as its system Enterococcus faecium. The assay is described as follows: In vitro antibacterial activity against Streptococcus faecium (ATCC 8043). The format is functional, organism-based.
Another assay concerns the target T2, Thymidylate synthase (Lactobacillus casei, UniProt P00469).
T2 sequence (P00469 whole entry): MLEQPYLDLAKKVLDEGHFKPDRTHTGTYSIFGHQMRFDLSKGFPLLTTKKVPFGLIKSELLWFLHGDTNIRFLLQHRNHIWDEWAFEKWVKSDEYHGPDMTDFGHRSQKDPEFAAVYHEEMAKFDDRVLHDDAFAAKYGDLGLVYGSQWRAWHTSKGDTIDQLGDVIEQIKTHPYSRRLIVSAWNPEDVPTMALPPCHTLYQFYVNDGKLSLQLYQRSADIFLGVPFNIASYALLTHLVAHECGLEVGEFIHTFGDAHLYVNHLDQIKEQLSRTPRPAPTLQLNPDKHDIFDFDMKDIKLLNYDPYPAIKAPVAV
The assay is described as follows: In vitro inhibition of activity against Lactobacillus casei enzyme thymidylate synthase. The format is functional, Lacticaseibacillus casei.

Assay [6] has as its system Enterococcus faecium. Nature of the assay: In vitro antibacterial activity against MTX-resistant Streptococcus faecium. It is filed as functional, organism-based.
Assay [7] has as its system L1210. Nature of the assay: In vitro for antitumor activity against L1210 leukemia in mice at a dose of 144 mg/Kg(sc) was reported as maximum survival time. It is filed as functional, Mus musculus.
The target in assay [8] is Dihydrofolate reductase (Lactobacillus casei, UniProt P00381). The assay is described as follows: In vitro inhibition of Dihydrofolate reductase activity against Lactobacillus casei enzyme. It is filed as functional, Lacticaseibacillus casei.
Chain of Dihydrofolate reductase (Lactobacillus casei, UniProt P00381) (P00381 whole entry): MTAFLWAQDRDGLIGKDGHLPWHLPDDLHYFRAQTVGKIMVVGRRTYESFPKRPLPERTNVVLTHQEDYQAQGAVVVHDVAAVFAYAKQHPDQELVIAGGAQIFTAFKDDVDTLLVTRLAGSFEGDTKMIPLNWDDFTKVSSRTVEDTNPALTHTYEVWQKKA
The subject of assay [9] is L1210. Nature of the assay: In vitro for antitumor activity against L1210 leukemia in mice at a dose of 144 mg/Kg(sc) was reported as percentage increase in life span. It is filed as functional. Particulars: Mus musculus.
Assay [10] deals with L1210. The assay is described as follows: (§1) In vitro membrane transport activity in L1210 cells in rodent. Particulars: Mus musculus. It is filed as functional, cell-based.
The species named for assay [11] is Mus musculus. Nature of the assay: In vitro membrane transport activity in S180 ascites tumor in rodent. It is filed as functional.
For assay [12], the system named is L1210. The assay is described as §1. It is filed as functional, Mus musculus.
A further assay concerns Ehrlich. The assay is described as follows: In vitro membrane transport activity in Ehrlich cells in rodent. Particulars: Mus musculus. The format is functional, cell-based.
Assay [13] deals with L1210. The assay is described as follows: In vitro for antitumor activity against L1210 leukemia in mice at a dose of 144 mg/Kg(sc) was reported as weight at termination of the therapy. It is filed as functional, Mus musculus.
The subject of assay [14] is L1210. Nature of the assay: In vitro inhibition of L1210 cell growth in rodent neoplastic cells. The format is functional, cell-based. To be noted: Mus musculus.
For assay [15], the system named is L1210. The assay is described as follows: In vitro for antitumor activity against L1210 leukemia in mice at a dose of 288 mg/Kg(sc) was reported as percentage increase in life span. It is filed as functional. Particulars: Mus musculus.
For assay [16], the system named is L1210. The assay is described as follows: In vitro for antitumor activity against L1210 leukemia in mice at a dose of 288 mg/Kg(sc) was reported as maximum survival time. It is filed as functional, Mus musculus.
Assay [17] is described as follows: In vitro for antitumor activity against S180 Ascites tumor in mice at a dose of 36 mg/Kg (sc) was reported as weight at termination of the therapy. It is filed as functional, Mus musculus.
A short description of assay [18]: In vitro for antitumor activity against S180 Ascites tumor in mice at a dose of 36 mg/Kg (sc) was reported as percentage increase in life span. Particulars: Mus musculus, S-180, sc. The format is functional.
Assay [19] concerns L1210. The assay is described as follows: In vitro for antitumor activity against L1210 leukemia in mice at a dose of 288 mg/Kg(sc) was reported as weight at termination of the therapy. The format is functional, Mus musculus.
Assay [20] is described as follows: In vitro antitumor activity against S180 Ascites tumor in mice at a dose of 36 mg/Kg (sc) was reported as maximum survival time. It is filed as functional, Mus musculus.
A short description of assay [21]: In vitro antitumor activity against S180 Ascites tumor in mice at a dose of 288 mg/Kg (sc) was reported as maximum survival time. It is filed as functional, Mus musculus.
Assay [22] is described as follows: In vitro for antitumor activity against S180 Ascites tumor in mice at a dose of 288 mg/Kg (sc) was reported as percentage increase in life span. It is filed as functional. To be noted: Mus musculus, S-180, sc.
Assay [23] in a line: In vitro for antitumor activity against S180 Ascites tumor in mice at a dose of 288 mg/Kg (sc) was reported as weight at termination of the therapy. It is filed as functional, Mus musculus.
The test system of assay [24] is L1210. The assay is described as follows: In vitro for antitumor activity against L1210 leukemia in mice at a dose of 288 mg/kg (s.c.) was reported as percentage increase in life span. It is filed as functional. Particulars: Mus musculus, L1210, sc.
A short description of assay [25]: In vitro antitumor activity against S180 Ascites tumor in mice at a dose of 15 mg/Kg (sc) was reported as maximum survival time. The format is functional, Mus musculus.
The test system of assay [26] is L1210. The assay is described as follows: In vitro for antitumor activity against L1210 leukemia in mice at a dose of 15 mg/Kg(sc) was reported as weight at termination of the therapy. The format is functional, Mus musculus.
The nature of assay [27]: In vitro antitumor activity against S180 Ascites tumor in mice at a dose of 6 mg/Kg (sc) was reported as maximum survival time. It is filed as functional, Mus musculus.
Assay [28] is described as follows: In vitro for antitumor activity against S180 Ascites tumor in mice at a dose of 6 mg/Kg (sc) was reported as percentage increase in life span. It is filed as functional. Particulars: Mus musculus, S-180, sc.
Assay [29] has as its system L1210. The assay is described as follows: In vitro for antitumor activity against L1210 leukemia in mice at a dose of 15 mg/Kg(sc) was reported as percentage increase in life span. It is filed as functional. Particulars: Mus musculus.
The nature of assay [30]: In vitro for antitumor activity against S180 Ascites tumor in mice at a dose of 15 mg/Kg (sc) was reported as weight at termination of the therapy. The format is functional, Mus musculus.
Assay [31] in a line: In vitro for antitumor activity against S180 Ascites tumor in mice at a dose of 6 mg/Kg (sc) was reported as weight at termination of the therapy. It is filed as functional, Mus musculus.
Assay [32] can be described thus: In vitro for antitumor activity against S180 Ascites tumor in mice at a dose of 15 mg/Kg (sc) was reported as percentage increase in life span. It is filed as functional. Particulars: Mus musculus, S-180, sc.
In assay [33] the test system is L1210. The assay is described as follows: In vitro for antitumor activity against L1210 leukemia in mice at a dose of 15 mg/Kg(sc) was reported as maximum survival time. It is filed as functional, Mus musculus.

A word on the Ki: it is a measure of affinity in units of concentration, obtained from inhibition or displacement. Low readings indicate tighter binding, high ones weaker binding. Usually IC50 stands for the concentration at which inhibition is half-maximal. One may read the Km as the concentration of substrate that gives half-maximal velocity. In general, ILS refers to how much longer treated animals lived than controls. Read a low ILS as a small benefit in survival.

Where only a bound is given, the exact number is not on record here.

As to `CCCCCCCCN(Cc1cnc2nc(N)nc(N)c2n1)c1ccc(C(=O)NC(CCC(=O)O)C(=O)O)cc1` (stereo unspecified), the affinity on Dihydrofolate reductase [1], expressed as Ki, was 17.5 nM. The IC50 in the assay with Lacticaseibacillus casei [2] is > 10000 µM; in the assay with Lacticaseibacillus casei [3], 0.017 µM; in the assay on Enterococcus faecium [5], 0.41 µM; at Thymidylate synthase, > 80 µM; in the assay on Enterococcus faecium [6] it was 670 µM; against Dihydrofolate reductase [8] it was 0.012 µM. Moreover, the IC50 with L1210 [14] worked out at 0.217 µM. Also, the Km is 1290 µM in the assay filed under Mus musculus [4], 5.6 µM in the assay with L1210 [10], 1.8 µM in the assay filed under Mus musculus [11] and 1.3 µM in the assay with Ehrlich. The compound further came in with an MST with L1210 [7] of 8.1 days. In addition, the ILS at 144 mg/kg with L1210 [9] amounted to 16%. Also, the k in the assay with L1210 [12] turned out to be 0.89 min⁻¹. The Weight at term in the assay with L1210 [13] is 22.7 g.
Consider `Nc1nc(N)c2nc(CNc3ccc(C(=O)N[C@@H](CCC(=O)O)C(=O)O)cc3)cnc2n1` [AMINOPTERIN], for which the affinity on Dihydrofolate reductase [1], expressed as Ki, was 0.004 nM. Besides, the figures for the Km with L1210 [10] and in the assay with Ehrlich were 1.3 µM and 2.1 µM, respectively. The compound also had a k in the assay on L1210 [12] of 0.21 min⁻¹. The IC50 in the assay on L1210 [14] was 0.0012 µM.
For `C#CCN(Cc1cnc2nc(N)nc(N)c2n1)c1ccc(C(=O)NC(CCC(=O)O)C(=O)O)cc1` (stereo unspecified), at Dihydrofolate reductase [1], the affinity corresponds to a Ki of 0.5 nM. Besides, the IC50 with Lacticaseibacillus casei [2] is > 10000 µM; in the assay with Lacticaseibacillus casei [3], 0.014 µM; with Enterococcus faecium [5], 0.21 µM; at Thymidylate synthase, 20 µM; in the assay on Enterococcus faecium [6], > 10000 µM; on Dihydrofolate reductase [8] it was 0.01 µM. The compound further had an IC50 in the assay on L1210 [14] of 0.0014 µM. Also, the Km turned out to be 385 µM in the assay listed under Mus musculus [4], 3.2 µM in the assay with L1210 [10], 2.1 µM in the assay filed under Mus musculus [11] and 2.4 µM in the assay on Ehrlich. Besides, the ILS at 288 mg/kg was found to be 143% with L1210 [15] and 67% in assay [22]. The figures for the MST (in the assay with L1210 [16]; in [20]; in assay [21]) were 16.6 days, 22.9 days and 19.8 days, respectively. In addition, the results for the Weight at term (in assay [17]; in the assay on L1210 [19]; in assay [23]) were 23.9 g, 22.3 g and 22.4 g, respectively. For the same compound, the ILS at 36 mg/kg in assay [18] came to 129%. In the assay with L1210 [12], this compound yielded a k of 0.26 min⁻¹.
`CCCN(Cc1cnc2nc(N)nc(N)c2n1)c1ccc(C(=O)NC(CCC(=O)O)C(=O)O)cc1` (stereo unspecified) displayed a Ki on Dihydrofolate reductase [1] of 0.003 nM. The Km is 422 µM in the assay filed under Mus musculus [4], 3.2 µM in the assay on L1210 [10], 3.5 µM in the assay filed under Mus musculus [11] and 4.2 µM in the assay with Ehrlich. In the assay on L1210 [16], this compound displayed an MST of 15.8 days. In the assay with L1210 [19], this compound had a Weight at term of 21.3 g. The same compound had an ILS at 288 mg/kg in the assay on L1210 [24] of 133%. The compound further displayed a k with L1210 [12] of 0.26 min⁻¹. In addition, the IC50 in the assay on L1210 [14] worked out at 0.0022 µM.
Consider `CN(Cc1cnc2nc(N)nc(N)c2n1)c1ccc(C(=O)N[C@@H](CCC(=O)O)C(=O)O)cc1` [METHOTREXATE], for which the MST in assay [25] was 21.4 days; in assay [27] it was 17.8 days; with L1210 [33] it was 17.1 days. The IC50 in the assay on Lacticaseibacillus casei [2] is > 10000 µM; in the assay with Lacticaseibacillus casei [3], 0.013 µM; with Enterococcus faecium [5] it was 0.09 µM; in the assay on Enterococcus faecium [6], 7200 µM. Also, the Km in the assay filed under Mus musculus [4] was determined as 339 µM; in the assay on L1210 [10], 3.7 µM; in the assay listed under Mus musculus [11], 11.4 µM; in the assay with Ehrlich it was 10.1 µM. For the same compound, the figures for the Weight at term (in the assay with L1210 [26]; in assay [30]; in assay [31]) were 19.8 g, 24.4 g and 24.1 g, respectively. Also, in assay [28], the ILS at 6 mg/kg was 78%. Further, the results for the ILS at 15 mg/kg (in the assay with L1210 [29]; in [32]) were 152% and 82%, respectively. In the assay with L1210 [12], this compound had a k of 0.23 min⁻¹.
